Where two headings read alike, the source gives them in different places.
What was measured:
[1] = test system: Sparicotyle chrysophrii adults; assay: microbe, parasite or virus in culture; conditions: for mortality at 1000 µM: Sparicotyle chrysophryii
Description: Firstly, the adult monogeneans were exposed to a range of four concentrations of tested compounds encompassing the full dose–response range; each compound stock at 10 mM was serially diluted 10 (1 mM), 10^2 (0.1 mM), 10^3 (0.01 mM), and 10^4 (1 µM) times. […] Ten monogeneans per well (in triplicate) were added to 2 mL sterile seawater (SW) in 6-well plates, checked at the stereomicroscope for visible signs of mechanical damage, and exposed to selected concentrations in the dark at room temperature (Table 1). The number of live/dead parasites was recorded under the stereomicroscope at 1, 4, 12, and 24 h post-exposure. S. chrysophrii was considered to be alive if it performed any type of movement autonomously or 5 s after gentle probing with a dissection needle. Negative controls comprised the seawater with up to 0.5% of DMSO in total volume, the latter used as a solvent for each compound.

Vibrio anguillarum = assay: Bactericidal activity (MTT), Vibrio anguillarum; assay type: cell-based; conditions: for antimicrobial activity against V. anguillarum / antibacterial activity against V. anguillarum: p < 0.05; for antibacterial activity against V. anguillarum: among the natural compounds; for inhibition at 0.1 µM / inhibition at 1 µM / inhibition at 10 µM: Vibrio anguillarum
Description: (§1) Two bacterial fish pathogens, Vibrio harveyi and V. anguillarum were used to test the bactericidal activity of the target compounds, being previously isolated and identified as described in [65]. Lab strains were maintained at −20 °C in Tryptone Soy Broth (TSB, Difco Laboratories, Inc., Detroit, MI, USA) supplemented with 1% (w/v) NaCl (TSB1) and 50% (v/v) glycerol. […] Bacteria in TSB medium were then cultured at the same temperature with continuous shaking (100 rpm) for 24 h. Exponentially grown bacteria were resuspended in sterile PBS and adjusted to the concentration of 10^8 colony forming units (cfu)/mL. Each target compound (20 μL; concentrations 0.1, 1, and 10 µM) was added (in triplicates) to the wells of a flat-bottom 96-well plate, except for the positive control that consisted of 0.5% DMSO in PBS. Aliquots of 20 μL of the previously cultured bacteria were added, and the plate was incubated for 5 h at 25 °C. […] The plate was then centrifuged (4500 rpm, 10 min) and the precipitate dissolved in 200 μL of DMSO. The solution (100 μL) from each well was transferred to another flat-bottom 96-well plate. The absorbance of the dissolved formazan was measured at 570 nm. Bactericidal activity was expressed as percentage of nonviable bacteria, calculated as the difference between absorbance of surviving bacteria compared to the absorbance of bacteria in positive controls (100%).

Vibrio harveyi = assay: Bactericidal activity (MTT), Vibrio harveyi; assay type: cell-based; conditions: for bactericidal activity against V. harveyi: synthetic compounds, at increased concentrations; for inhibition at 0.1 µM / inhibition at 1 µM / inhibition at 10 µM: Vibrio harveyi; for antimicrobial activity against V. harveyi: p < 0.05
Description: as §1

[2] = test system: Sparicotyle chrysophrii adults; assay: microbe, parasite or virus in culture; conditions: for LC20 (95% CI), toxicity level for adult S. chrysophrii: 20% mortality; for LC50: read-out: LC50 (95% CI), toxicity level for adult S. chrysophrii; for LC80 (95% CI), toxicity level for adult S. chrysophrii: 80% mortality; for b (SE), slope of dose–response model / e (SE), midpoint of dose–response model: Weibull type 2, c = 0, d = 1, mortality at 4 h post-exposure; for fold less toxic for S. chrysophrii than eucalyptol and garlicin 80%: comparison with eucalyptol and garlicin 80%; for fold lower toxicity for S. chrysophrii than curcumin: comparison with curcumin
Description: Subsequently, the monogeneans (n = 6, in triplicate) were exposed to a range of seven concentrations tailored according to each compound’s activity observed in preliminary tests. The range for each compound was scaled down to an appropriate order of magnitude so that each compound reached 100% mortality at 4 h post-exposure (Table 1).
For the dose–response curve fitting, the drc package for R (v4.0.4) was used. An appropriate nonlinear regression model was selected between log-logistic and Weibull type models, based on the Akaike information criterion (AIC) and lack-of-fit test criteria through the use of mselect function. The best scoring model was Weibull type 2 model (asymmetrical) with lower and upper limits fixed to 0 and 1, respectively, as mortality in all assays reached 100%. […] Model parameters and estimated lethal doses (20%, 50%, and 80%) were calculated with standard errors and 95% confidence intervals, based on the delta method, respectively, and adjusted for simultaneous inference through multcomp package. Dose–response curves were visualised using ggplot2 library.

[3] = 50% mortality, 4 h post-exposure
[4] = 0.1 µM, 5 h at 25 °C, read-out: Bactericidal activity (%)
[5] = 1 µM, 5 h at 25 °C, read-out: Bactericidal activity (%)
[6] = 10 µM, 5 h at 25 °C, read-out: Bactericidal activity (%)
[7] = 5 h, read-out: Bactericidal activity (%)

`CCN(CC)C(=O)c1cccc(C)c1` [N,N-diethyl-M-toluamide, reference compound] was tested, and the mortality ([1]; highest concentration (1 mM), already after 1 h) was 100%, the inhibition (Vibrio anguillarum; 0.1 µM) was -61.9 ± 29% and the inhibition (Vibrio anguillarum; 1 µM) was -28.5 ± 24.1%. It also gave an inhibition (Vibrio anguillarum; 10 µM) of 9.1 ± 8.5%, an inhibition (Vibrio harveyi; 0.1 µM) of -0.9 ± 8.7% and an inhibition (Vibrio harveyi; 1 µM) of 4.5 ± 16.7%. The inhibition (Vibrio harveyi; 10 µM) was 13.7 ± 0.6% and the “bactericidal activity against V. harveyi” value (Vibrio harveyi) was “significant bactericidal activity”.
In the case of `Oc1c(Cl)cc(Cl)cc1Sc1cc(Cl)cc(Cl)c1O` [Bithionate sodium, 2,2′-sulfanediylbis(4,6-dichlorophenolate), reference compound], the “LC20 (95% CI), toxicity level for adult S. chrysophrii” value (shortened to “LC20 (95% CI), toxicity level”) ([2]; 4 h post-exposure) is reported as 0.003 (0.002–0.005) mM, the LC50 [2, 3] is reported as 5 to 10 µM and the “LC80 (95% CI), toxicity level for adult S. chrysophrii” value (“LC80 (95% CI), toxicity level” for short) ([2]; 4 h post-exposure) is reported as 0.01 (0.01–0.01) mM. For the same compound, the “b (SE), slope of dose–response model” value [2] was 1.93 (0.36), the “e (SE), midpoint of dose–response model” value [2] was 0.01 (0.001) and the inhibition (Vibrio anguillarum; [4]) was 4.9 ± 11.8%. The inhibition (Vibrio anguillarum; [5]) was 49.2 ± 11.6%, the “antimicrobial activity against V. anguillarum” value (Vibrio anguillarum; 10 µM) was “best antimicrobial activity” and the inhibition (Vibrio anguillarum; [6]) was 96.4 ± 1.7%. It also gave an inhibition (Vibrio harveyi; [4]) of -8.8 ± 1.8%, an inhibition (Vibrio harveyi; [5]) of 3.5 ± 11.6% and an inhibition (Vibrio harveyi; [6]) of 40 ± 0.7%. For the same compound, the “bactericidal activity against V. harveyi” value (Vibrio harveyi) was “significant bactericidal activity”.
In the case of `CC(C)=C[C@@H]1[C@@H](C(=O)O)C1(C)C` (relative stereo) [(+)-trans-Chrysanthemic acid], the “LC20 (95% CI), toxicity level” value ([2]; 4 h post-exposure) is reported as 0.58 (0.43–0.74) mM, the LC50 [2, 3] is reported as 840 µM and the “LC80 (95% CI), toxicity level” value ([2]; 4 h post-exposure) is reported as 1.1 (0.79–1.41) mM. The “b (SE), slope of dose–response model” value [2] was 3.12 (0.69), the “e (SE), midpoint of dose–response model” value [2] was 0.94 (0.07) and the “fold less toxic for S. chrysophrii than eucalyptol and garlicin 80%” value [2] was “approximately 1.2”. For the same compound, the “potency / effect against V. anguillarum as judged in the discussion” value (“potency / effect against V. anguillarum” below) (Vibrio anguillarum) was “the effect was observed only against V. anguillarum”, the inhibition (Vibrio anguillarum; [4]) was -1.4 ± 13% and the inhibition (Vibrio anguillarum; [5]) was 8.15 ± 16.3%. For the same compound, the inhibition (Vibrio anguillarum; [6]) was 32 ± 9%, the “antibacterial activity against V. anguillarum” value (Vibrio anguillarum) was “strongest antibacterial activity” and the inhibition (Vibrio harveyi; [4]) was -47.7 ± 5.9%. For the same compound, the inhibition (Vibrio harveyi; [5]) was -25.4 ± 14.6% and the inhibition (Vibrio harveyi; [6]) was 13.2 ± 6.5%.
`O=c1ccc2ccccc2o1` [Coumarin] showed a mortality at 1000 µM ([1]; 24 h) of 100%, an inhibition at 0.1 µM (Vibrio anguillarum; [4]) of 1.5 ± 8.38% and an inhibition at 1 µM (Vibrio anguillarum; [5]) of 13.2 ± 13.4%. For the same compound, the inhibition at 10 µM (Vibrio anguillarum; [6]) was 17.3 ± 5%, the “antibacterial activity against V. anguillarum” value (Vibrio anguillarum) was “strongest antibacterial activity” and the inhibition at 0.1 µM (Vibrio harveyi; [4]) was -33.4 ± 3.9%. For the same compound, the inhibition at 1 µM (Vibrio harveyi; [5]) was -21.2 ± 13.3% and the inhibition at 10 µM (Vibrio harveyi; [6]) was -1.9 ± 7.6%.
`CC12CCC(CC1)C(C)(C)O2` [Eucalyptol] was tested, and the “LC20 (95% CI), toxicity level” value ([2]; 4 h post-exposure) was 0.5 (0.38–0.63) mM, the “LC80 (95% CI), toxicity level” value ([2]; 4 h post-exposure) was 0.83 (0.71–0.94) mM and the LC50 ([2]; Sparicotyle chrysophryii, 4 h) was 670 µM. For the same compound, the “b (SE), slope of dose–response model” value [2] was 3.99 (0.7), the “e (SE), midpoint of dose–response model” value [2] was 0.74 (0.03) and the “fold lower toxicity for S. chrysophrii than curcumin” value [2] was “approximately 3”. For the same compound, the “potency / effect against V. anguillarum” value (Vibrio anguillarum) was “ineffective against V. anguillarum”, the inhibition at 0.1 µM (Vibrio anguillarum; [4]) was -31.7 ± 156% and the inhibition at 1 µM (Vibrio anguillarum; [5]) was -34.1 ± 10.5%. The inhibition at 10 µM (Vibrio anguillarum; [6]) was 23.6 ± 3.1%, the “potency / effect against V. harveyi as judged in the discussion” value (Vibrio harveyi) was “highest anti-Vibrio harveyi effect among tested natural compounds” and the “antimicrobial activity against V. harveyi” value (Vibrio harveyi; 10 µM) was “significant antimicrobial activity”. For the same compound, the inhibition at 0.1 µM (Vibrio harveyi; [4]) was -2.7 ± 8.7%, the inhibition at 1 µM (Vibrio harveyi; [5]) was -1.9 ± 12.3% and the inhibition at 10 µM (Vibrio harveyi; [6]) was 50.3 ± 6.8%.
For `C=CCSCC=C` [Diallyl sulphide], the mortality at 1000 µM ([1]; 24 h) was 100%, the “antimicrobial activity against V. anguillarum” value (Vibrio anguillarum; 10 µM) was “best antimicrobial activity” and the inhibition at 0.1 µM (Vibrio anguillarum; [4]) was -11.3 ± 24.8%. It also gave an inhibition at 1 µM (Vibrio anguillarum; [5]) of -5.8 ± 11.7%, an inhibition at 10 µM (Vibrio anguillarum; [6]) of 46.8 ± 4% and an inhibition at 0.1 µM (Vibrio harveyi; [4]) of -36.6 ± 6.8%. The inhibition at 1 µM (Vibrio harveyi; [5]) was -36.4 ± 7.9% and the inhibition at 10 µM (Vibrio harveyi; [6]) was -1.6 ± 0.7%.
For `C[C@H]1C(=O)O[C@@H]2CCN3CC=C(COC(=O)[C@](C)(O)[C@]1(C)O)[C@H]23` [Monocrotaline], the mortality at 1000 µM ([1]; 1 h) was 100%, the inhibition at 0.1 µM (Vibrio anguillarum; [7]) was -73 ± 56.1% and the inhibition at 1 µM (Vibrio anguillarum; [7]) was -46.9 ± 32%. For the same compound, the inhibition at 10 µM (Vibrio anguillarum; [7]) was 17.9 ± 0.6%, the “antimicrobial activity against V. harveyi” value (Vibrio harveyi; 10 µM) was “significant antimicrobial activity” and the inhibition at 0.1 µM (Vibrio harveyi; [7]) was -4.9 ± 24.9%. For the same compound, the inhibition at 1 µM (Vibrio harveyi; [7]) was 18.2 ± 10.9% and the inhibition at 10 µM (Vibrio harveyi; [7]) was 40.1 ± 4.1%.
`C=CCSSCC=C` [Garlicin 80%] was tested, and the “LC20 (95% CI), toxicity level” value ([2]; 4 h post-exposure) was 0.4 (0.27–0.53) mM, the LC50 [2, 3] was 600 µM and the “LC80 (95% CI), toxicity level” value ([2]; 4 h post-exposure) was 0.81 (0.66–0.95) mM. For the same compound, the “b (SE), slope of dose–response model” value [2] was 2.79 (0.49), the “e (SE), midpoint of dose–response model” value [2] was 0.68 (0.04) and the “fold lower toxicity for S. chrysophrii than curcumin” value [2] was “approximately 3”. For the same compound, the “potency / effect against V. anguillarum” value (Vibrio anguillarum) was “ineffective against V. anguillarum”, the inhibition (Vibrio anguillarum; [4]) was -110 ± 84.2% and the inhibition (Vibrio anguillarum; [5]) was -46 ± 17.2%. The inhibition (Vibrio anguillarum; [6]) was -52.1 ± 31.4%, the “potency / effect against V. harveyi as judged in the discussion” value (Vibrio harveyi) was “highest anti-Vibrio harveyi effect among tested natural compounds” and the inhibition (Vibrio harveyi; [4]) was 20.9 ± 19.9%. The inhibition (Vibrio harveyi; [5]) was 28.7 ± 6.2%, the “antimicrobial activity against V. harveyi” value (Vibrio harveyi; 10 µM) was “significant antimicrobial activity” and the inhibition (Vibrio harveyi; [6]) was 42 ± 1.3%.
With 1R-Camphor the “LC20 (95% CI), toxicity level” value ([2]; 4 h post-exposure) was 0.71 (0.53–0.89) mM, the LC50 [2, 3] was 910 µM and the “LC80 (95% CI), toxicity level” value ([2]; 4 h post-exposure) was 1.1 (0.94–1.26) mM. For the same compound, the “b (SE), slope of dose–response model” value [2] was 4.54 (0.91), the “e (SE), midpoint of dose–response model” value [2] was 0.99 (0.05) and the “fold less toxic for S. chrysophrii than eucalyptol and garlicin 80%” value [2] was “approximately 1.2”. For the same compound, the inhibition (Vibrio anguillarum; [4]) was -38.8 ± 22%, the inhibition (Vibrio anguillarum; [5]) was -27.8 ± 19% and the inhibition (Vibrio anguillarum; [6]) was -17.4 ± 9.3%. The inhibition (Vibrio harveyi; [4]) was -23.6 ± 2.6%, the inhibition (Vibrio harveyi; [5]) was 7.7 ± 10.7% and the inhibition (Vibrio harveyi; [6]) was 9.3 ± 7.4%.

From PMC8401465, “In Vitro Testing of Alternative Synthetic and Natural Antiparasitic Compounds against the Monogenean Sparicotyle chrysophrii” (Pathogens, 2021)
